We go through 79 compounds from the METLIN SMRT retention time set (Domingo-Almenara et al. 2019).

A short description of this series: gradient 5% acetonitrile 3 min, to 50% in 2 min, to 85% in 15 min, held 3 min, 100 µL/min. The following applies: column: Zorbax Extend-C18 2.1 x 50 mm; eluents: water / acetonitrile, 0.1% formic acid. In outline: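 Each retention time is based on an adduct peak selected computationally and verified by manual inspection. Measurements used HPLC–quadrupole time-of-flight mass spectrometry in positive and negative ionization mode on mixtures of ~100 pure standards. Chromatography ran on a Zorbax Extend-C18 column (2.1 × 50 mm, 1.8 μm) at 100 μL/min with water and acetonitrile, each containing 0.1% formic acid, and dead and dwell volumes of 40 μL and 900 μL.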
`COc1ccccc1-c1noc(-c2nnn3c2COC(c2ccc(Cl)cc2)C3)n1` (centres undefined) came in with an RP-LC retention time of 1220 s.
Under `CCN1C(=O)C(C)(C(=O)Nc2cc(C)cc(C)c2)Oc2cccnc21` (centres undefined) stands 982 s; under `c1nc(NC2CCCCCC2)c2[nH]cnc2n1`, 564 s; under `O=C(C1CCN(c2cnc3nccnc3c2)CC1)N1CCC2(CC1)OCCO2`, 620 s.
The compound `CCc1nc(-n2cccc2)sc1C(=O)Nc1ccc(C)cc1` yielded an RP-LC retention time of 949 s.
Under `Cc1ccc(C)c(N2CCN(c3ccnc(SCC(=O)Nc4ccc(F)cc4)n3)CC2)c1` stands 891 s.
Turning to `COc1ccc(OC)c(S(=O)(=O)N2CCCC(C)(C(=O)NCc3ccccc3)C2)c1` (centres undefined), the RP-LC retention time was 903 s.
`CCc1cc(N2CCN(C(=O)COc3ccc(OC)cc3)CC2)nc2nncn12` yielded an RP-LC retention time of 602 s.
Under `CCc1nnc(-c2ccc(S(=O)(=O)N3CCOCC3)o2)o1` stands 714 s; under `Cc1cc(F)ccc1NS(=O)(=O)c1cc(-c2cc(C(F)(F)F)on2)sc1C`, 1160 s; under `CC(=O)N1CCc2cc(N3CC(C(=O)Nc4ccc(Cl)cc4C)CC3=O)ccc21` (centres undefined), 735 s.
Under `CCCn1c(CN2CCCC2)nc2cc(NC(=O)C(C)C)ccc21` stands 595 s.
Under `CCC(=O)N1CCc2cc(N3CC(C(=O)Nc4cccc(F)c4)CC3=O)ccc21` (centres undefined) stands 763 s.
For `O=C(Nc1ccc(F)cc1)C1(c2cccs2)CCOCC1`, the RP-LC retention time was 798 s.
Take `CC(C)(C)C(=O)Nc1nc(CC(=O)NCCC2=CCCCC2)cs1`: the RP-LC retention time is 814 s.
Under `CCCNC(=O)c1cc2n(n1)CC(C)(C(=O)NCc1ccc(F)cc1)N(C)C2=O` (centres undefined) stands 688 s.
The compound `Cc1nn(C)c(=O)c2cc(S(=O)(=O)NCc3ccccc3)cn12` displayed an RP-LC retention time of 776 s.
Under `O=C(NCC(O)(c1ccccc1)C(F)(F)F)c1cnccn1` (centres undefined) stands 710 s; under `CNC(=O)C1Cc2ccccc2N1S(=O)(=O)c1cccc(C(F)(F)F)c1` (centres undefined), 802 s.
For the compound `CN(Cc1nc2cc(C(=O)N3CCCC3)ccc2n1C)C(=O)Nc1ccccc1Br`, the RP-LC retention time was 644 s.
Under `Cc1ccc(S(=O)(=O)NCCc2nnc3ccc(NCCCOC(C)C)nn23)cc1` stands 657 s.
Compound `COC1CCC12CCN(C(=O)c1cnccn1)CC2` (centres undefined) gave an RP-LC retention time of 657 s.
`CCn1ccc(C(=O)N2CCN(C(=O)N3C[C@H]4C[C@H](C3)[C@H]3CCCC(=O)N3C4)CC2)n1` returned an RP-LC retention time of 609 s.
Under `Cc1ccc(C(=O)Nc2nccnc2C(=O)NC2CCCCC2)cc1` stands 1100 s; under `CC1=C(c2ccc(Cl)cc2)S(=O)(=O)N=C1N1CCC(C(=O)NCCN2CCOCC2)CC1`, 592 s.
Under `O=C(NCc1cccnc1)C1c2ccccc2C(=O)N1Cc1ccc2c(c1)OCO2` (centres undefined) stands 609 s; under `CC1=C(c2ccc(C)cc2)S(=O)(=O)N=C1N1CCC(NC(=O)C2CCC2)CC1`, 805 s.
Take `Cn1cnc2ccc(-c3noc(-c4ccc(Br)cc4)n3)cc21`: the RP-LC retention time came out at 848 s.
Under `CCOc1ccc(S(=O)(=O)N2CCC(C(=O)N3CCCCCC3)CC2)cc1C` stands 951 s.
`CC(=O)c1cccc(NC(=O)Cn2ccc3ccc(-c4nnc(C)o4)cc32)c1` returned an RP-LC retention time of 762 s.
`O=C(NCC1CCCO1)c1cn2ccccc2n1` (centres undefined) came in with an RP-LC retention time of 565 s.
Regarding `COc1ccc(-c2cn3c(C(=O)Nc4ccc5c(c4)OCCO5)csc3n2)cc1`, the RP-LC retention time was 813 s.
Under `CCOc1ccc(-c2cc3c(=O)n(Cc4nc(-c5cccc(F)c5)no4)ccn3n2)cc1` stands 1140 s; under `COc1ccc(C)cc1NC(=O)Cn1nc2c(Oc3cccc(F)c3)nccn2c1=O`, 936 s; under `COc1ccc(-c2nnc(-c3ccccc3Cl)o2)cc1S(=O)(=O)N1CCC(C)CC1`, 1150 s.
Under `O=C([C@@H]1C[C@H](F)CN1C(=O)Nc1ccc(C(F)(F)F)cc1)N1CCc2ccccc2C1` stands 857 s; under `O=C(c1ccc(F)cc1)N1CCN(S(=O)(=O)c2cc3c4c(c2)CCC(=O)N4CCC3)CC1`, 808 s; under `Nc1cc(C(F)(F)F)c(-c2cc(N3CCOCC3)nc(N3CCOCC3)n2)cn1`, 650 s.
Under `Nc1ccc(C(=O)c2ccccc2)cc1[N+](=O)[O-]` stands 783 s; under `CCOC(=O)N1CCN(c2ncc(C(=O)Nc3ccccc3)c(N)n2)CC1`, 692 s.
For `Cc1nc(OC(C)C)cc(N2CCN(C(=O)CCc3ccccc3)CC2)n1`, the RP-LC retention time is 617 s.
Under `O=c1c2cc(-c3ccc4c(c3)OCO4)nn2ccn1Cc1cccc(F)c1` stands 981 s; under `CCc1c(C)nc2nc(-c3ccccc3)nn2c1NCc1ccc(C)cc1`, 996 s.
`Cc1cc(NC(=O)Cn2nc(N3CCOCC3)c3ccccc3c2=O)ccc1Br` had an RP-LC retention time of 884 s.
Under `CCc1ccc(NC(=O)C2CCN(S(=O)(=O)c3ccc4c(c3)CCCC(=O)N4)CC2)cc1` stands 834 s.
Turning to `CC(C)NC(=O)C1CCN(c2nc3ccc(-c4ccsc4)nc3s2)CC1`, the RP-LC retention time is 796 s.
Compound `Cn1cnc(S(=O)(=O)N2CCC(C(=O)Nc3ccccc3)CC2)c1` gave an RP-LC retention time of 675 s.
In the case of `CC(C)=C1C(=O)Nc2ccc(S(=O)(=O)N3CCN(c4ccccn4)CC3)cc21`, the RP-LC retention time stood at 612 s.
The compound `Cc1nn(CC(=O)NCCCOC(C)C)c(=O)c2c(-n3cccc3)n(-c3ccc(Cl)cc3)nc12` came in with an RP-LC retention time of 997 s.
Under `CCC(CC)C(=O)Nc1nc(-c2ccc3c(c2)NC(=O)CO3)c(C)s1` stands 910 s.
As for `Cc1nn2c(CNS(=O)(=O)c3ccc4c(c3)CCC4)c(-c3ccccc3)nc2s1`, the RP-LC retention time was found to be 936 s.
Compound `O=C(c1nc(-c2cccc(F)c2)n2c1CCCCC2)N1CCN(c2ccccn2)CC1` yielded an RP-LC retention time of 645 s.
Under `O=C(NC1CCN(c2cc(-c3cccs3)[nH]n2)CC1)c1ccc(Cl)cc1` stands 749 s.
Under `CCOc1ccc(-c2cc3c(=O)n(Cc4nc(-c5ccccc5C)no4)ccn3n2)cc1` stands 1170 s; under `Cc1cccc(N2C(=O)CN(S(=O)(=O)c3ccccc3)CC2(C)C(=O)NC2CCCC2)c1C` (centres undefined), 968 s.
Under `CCn1c(=O)sc2cc(S(=O)(=O)N3CCC(C(=O)Nc4ccc(C(C)C)cc4)CC3)ccc21` stands 985 s; under `Cc1nc2cc(-c3noc(-c4cccc(C(F)(F)F)c4)n3)ccc2o1`, 1220 s; under `O=C(CCCc1ccccc1)N1CCC(c2noc(-c3cnccn3)n2)C1` (centres undefined), 776 s.
Compound `Cc1cccc(-c2nc3ccccn3c2NC(=O)NCc2ccccc2)c1` had an RP-LC retention time of 656 s.
Under `O=C(Nc1nc(-c2cccc3ccccc23)cs1)c1ccncc1` stands 904 s; under `CCCNC(=O)CCc1nc2ccccc2n(CC(=O)Nc2ccc(CC)cc2)c1=O`, 852 s.
Under `CCn1c(=O)c(C)nc2cc(-c3noc(/C=C/c4ccc(OC)cc4)n3)ccc21` stands 1140 s; under `O=C(CCc1c(-c2ccccc2)nc2ccccn12)Nc1ccccc1Cl`, 668 s; under `CCOc1ccccc1CN1C[C@@H](CO)[C@H](c2ccncc2)C1`, 620 s.
Under `CCc1ccc(NC(=O)Cn2c(N3CCCC3)nc(C)cc2=O)cc1` stands 699 s.
In turn, `CNCC[C@@H](Oc1ccccc1C)c1ccccc1` displayed an RP-LC retention time of 728 s.
Under `Cc1ccc(NC(=O)Cn2cnc3c(sc4nc(-c5ccccc5)ccc43)c2=O)c(C)c1` stands 1060 s.
Under `CC1CCN(S(=O)(=O)c2ccc3nn(Cc4cccc(Cl)c4)c(=O)n3c2)CC1` stands 1070 s; under `O=C1C2ON(c3ccccc3)C(c3ccccn3)C2C(=O)N1c1cccc(C(F)(F)F)c1` (centres undefined), 994 s; under `COc1ccc(C2NC(=O)NC(C)=C2C(=O)OCCc2ccccc2)c(OC)c1` (centres undefined), 957 s.
In turn, `COc1c2c(c(OC)c3c1c(=O)c1ccccc1n3C)OCO2` gave an RP-LC retention time of 767 s.
Under `COc1ccc(C(=O)Nc2nccnc2C(=O)NCCN2CCCCC2)cc1` stands 590 s; under `Nc1ccccc1SC1CC(=O)N(c2ccccc2Cl)C1=O` (centres undefined), 884 s.
Under `Cc1ccc(NC(=O)N2CCN(c3cnn4cnnc4c3)CC2)cc1` stands 627 s.
Under `O=C(NCc1nnnn1C1CCCCC1)c1cccs1` stands 715 s.
`O=C(Nc1ccccc1Cl)C1CCCN(c2ncnc3c2nc2n3CCCCC2)C1` (centres undefined) displayed an RP-LC retention time of 851 s.
Under `COc1ccc(N2CCN(C(=O)c3cn(-c4ccc(NC(C)=O)cn4)cn3)CC2)cc1` stands 617 s.
Under `O=C(C1CCC1)N1CCc2sc(S(=O)(=O)Nc3ccc(Cl)cc3)cc2C1` stands 929 s.
Compound `CCCCC(=O)Nc1nc(-c2ccc3c(c2)N(C)C(=O)C(C)O3)cs1` (centres undefined) displayed an RP-LC retention time of 953 s.
